Results: patent US5624923A, “Tricyclic diazepine vasopressin antagonists and oxytocin antagonists” (priority 1995, dated 1997)
Values joined by “and” are separate entries in the source; they are usually repeats but may differ in a detail not shown here. Equal values may be shown once.

What was measured:
[1] = target: T1, oxytocin receptors (Rattus norvegicus, UniProt P70536); assay: Oxytocin Receptor Binding
T1 construct: The uteri are dissected out, cleaned of fat and connective tissues; from tissue; host or cells: uterus of DES-treated female Sprague-Dawley rats
T1 sequence (P70536 1-388): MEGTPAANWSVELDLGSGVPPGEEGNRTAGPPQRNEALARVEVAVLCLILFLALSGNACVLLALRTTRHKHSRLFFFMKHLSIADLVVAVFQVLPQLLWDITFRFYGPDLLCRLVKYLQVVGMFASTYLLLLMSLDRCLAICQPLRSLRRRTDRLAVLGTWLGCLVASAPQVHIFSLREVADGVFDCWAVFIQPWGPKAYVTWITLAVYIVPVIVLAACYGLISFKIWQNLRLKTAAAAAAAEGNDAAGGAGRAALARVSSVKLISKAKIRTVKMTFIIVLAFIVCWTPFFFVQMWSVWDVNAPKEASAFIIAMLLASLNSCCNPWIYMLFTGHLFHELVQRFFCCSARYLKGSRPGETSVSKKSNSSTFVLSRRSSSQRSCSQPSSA
Method: Oxytocin Receptor Binding
Female Sprague-Dawley rats weighing approximately 200-250 g are injected intramuscularly (i.m.) with 0.3 mg/kg of body weight of diethylstilbestrol (DES). The rats are sacrificed 18 hours later under pentobarbital anesthesia. The uteri are dissected out, cleaned of fat and connective tissues and rinsed in 50 ml of normal saline. The tissue pooled from six rats is homogenized in 50 ml of […] Tris.HCl, containing 0.5 mM dithiothreitol and 1.0 mM EDTA, adjusted to pH 7.4, using a polytron at setting 6 with three passes of 10 sec each. The homogenate is passed through two (2) layers of cheesecloth and the filtrate centrifuged at 1000× g for 10 min. The clear supernatant is removed and recentrifuged at 165,000× g for 30 min. The resulting pellet containing the oxytocin receptors is resuspended in 50.0 mM Tris.HCl containing 5.0 mM MgCl2 at pH 7.4, to give a protein concentration of 2.5 mg/ml of tissue suspension. This preparation is used in subsequent binding assays with [^3 H]Oxytocin.
Binding of 3,5-[^3 H]Oxytocin ([^3 H]OT) to its receptors is done in microtiter plates using [^3 H]OT, at various concentrations, in an assay buffer of 50.0 mM Tris.HCl, pH 7.4 and containing 5.0 mM MgCl2, and a mixture of protease inhibitors: BSA, 0.1 mg; aprotinin, 1.0 mg; 1,10-phenanthroline, 2.0 mg; […], 10.0 mg; and PMSF, 0.3 mg per 100 ml of buffer solution. Non-specific binding is determined in the presence of 1.0 uM unlabeled OT. The binding reaction is terminated after 60 min , at 22° C. by rapid filtration through glass fiber filters using a Brandel® cell harvester (Biomedical Research and Development Laboratories, Inc., Gaithersburg, Md.). Competition experiments are conducted at equilibrium using 1.0 nM [^3 H]OT and varying the concentration of the displacing agents. The concentrations of agent displacing 50% of [^3 H]OT at its sites (IC50) are calculated by a computer assisted LUNDON-2 program (LUNDON SOFTWARE INC., Ohio, USA).

[2] = test system: Vasopressin V2; assay: Vasopressin V2 Antagonist Activity in Conscious Hydrated Rats; format: in vivo, rat; conditions: AVP 0.4 μg/kg i.p.
Method: Vasopressin V2 Antagonist Activity in Conscious Hydrated Rats
Conscious hydrated rats are treated with compounds under study from 0.1 to 100 mg/kg orally or vehicle. Two to four rats are used for each compound. One hour later, arginine vasopressin (AVP, antidiuretic hormore, ADH) dissolved in peanut oil is administered at 0.4 μg/kg intraperitoneally. Two rats in each test would not receive arginine vasopressin but only the vehicle (peanut oil) to serve as water-loading control. Twenty minutes later each rat is given 30 mL/kg of deionized water orally by gavage and is placed individually in a metabolic cage equipped with a funnel and a graduated glass cylinder to collect urine for four hours. Urine volume is measured and osmolality analyzed by use of a Fiske One-Ten osmometer (Fiske Assoc., Norwood, Mass., USA). Urinary sodium, potassium, and chloride are analyzed by use of ion-specific electrodes in a Beckman E3 (Electrolyte 3) Analyzer.

[3] = test system: Vasopressin V1; assay: Vasopressin V1 Antagonist Activity in Conscious Rats (vasopressin vasopressor response); format: in vivo, rat; set-up: Average Change: unit not given here; conditions: SHR
Method: Vasopressin V1 Antagonist Activity in Conscious Rats
Conscious rats are restrained in a supine position with elastic tape. The area at the base of the tail is locally anesthetized by subcutaneous infiltration with 2% procaine (0.2 ml). Using aseptic technique the ventral caudal tail artery is isolated and a cannula made of PE 10 and 20 (heat-fused) tubing is passed into the lower abdominal aorta. The cannula is secured, heparinized (1000 i.u./cc), sealed and the wound closed with one or two stitches of Dexon 4-0. The caudal vein is also cannulated in the same manner for intravenous drug administration. The duration of the surgery is approximately 5 minutes. Additional local anesthesia (2% procaine or lidocaine) is provided as needed.
The animals are placed in plastic restraining cages in an upright position. The cannula is attached to a Statham P23Db pressure transducer and pulsatile blood pressure is recorded. […] The vasopressin injections are repeated 30,60,90,120,180,240 and 300 min. later. Percentage of antagonism by the compound is calculated using the pre-drug vasopressin vasopressor response as 100%.

[4] = 10 mg/kg i.v., VAS 0.01 i.u./kg, 60 min
[5] = 10 mg/kg i.v., VAS 0.01 i.u./kg, 90 min
[6] = 10 mg/kg i.v., VAS 0.01 i.u./kg, 120 min
[7] = 10 mg/kg i.v., VAS 0.01 i.u./kg, 180 min
[8] = 10 mg/kg i.v., VAS 0.01 i.u./kg, 240 min
[9] = 10 mg/kg i.v., VAS 0.01 i.u./kg, 300 min
[10] = 10 mg/kg i.v., VAS 0.02 i.u./kg, 60 min
[11] = 10 mg/kg i.v., VAS 0.02 i.u./kg, 90 min
[12] = 10 mg/kg i.v., VAS 0.02 i.u./kg, 120 min
[13] = 10 mg/kg i.v., VAS 0.02 i.u./kg, 180 min
[14] = 10 mg/kg i.v., VAS 0.02 i.u./kg, 240 min
[15] = 10 mg/kg i.v., VAS 0.02 i.u./kg, 300 min
[16] = 20 mg/kg i.v., VAS 0.01 i.u./kg, 60 min
[17] = 20 mg/kg i.v., VAS 0.01 i.u./kg, 90 min
[18] = 20 mg/kg i.v., VAS 0.01 i.u./kg, 120 min
[19] = 20 mg/kg i.v., VAS 0.01 i.u./kg, 180 min
[20] = 20 mg/kg i.v., VAS 0.01 i.u./kg, 240 min
[21] = 20 mg/kg i.v., VAS 0.01 i.u./kg, 300 min
[22] = 20 mg/kg i.v., VAS 0.02 i.u./kg, 60 min
[23] = 20 mg/kg i.v., VAS 0.02 i.u./kg, 90 min
[24] = 20 mg/kg i.v., VAS 0.02 i.u./kg, 120 min
[25] = 20 mg/kg i.v., VAS 0.02 i.u./kg, 180 min
[26] = 20 mg/kg i.v., VAS 0.02 i.u./kg, 240 min
[27] = 20 mg/kg i.v., VAS 0.02 i.u./kg, 300 min

## Cc1cc(C(=O)O)cc(C)c1NC(=O)c1ccc(Cl)cc1Cl [Example 432, 4-[(2,4-dichlorobenzoyl)amino]-3,5-dimethylbenzoic acid]
[1]; [3H]oxytocin
  inhibition at 10 µM: 19%

## Cc1ccccc1C(=O)Nc1c(C)cc(C(=O)O)cc1C [Example 431, 4-[(2-methylbenzoyl)amino]-3,5-di-methylbenzoic acid]
[1]; [3H]oxytocin
  inhibition at 10 µM: 18%

## CCOC(=O)c1ccc2n1Cc1ccccc1N(C(=O)c1ccc(N)c(C)c1)C2 [Example 463, ethyl 10,11-dihydro-10-(4-amino-3-methylbenzoyl)-5H-pyrrolo[2,1-c]-[1,4]benzodiazepine-3-carboxylate]
[1]; 1.0 nM [3H]oxytocin
  IC50: 8.5 µM
[1]; [3H]oxytocin
  inhibition at 10 µM: 55%

## O=C(Nc1ccc(C(=O)O)c(Cl)c1)c1cccc(F)c1 [Example 441, 4-[[3-fluorobenzoyl]amino]-2-chloro-benzoic acid]
[1]; dose 1 μM, [3H]oxytocin
  inhibition at 1 µM: 22%

## O=C(c1ccc([N+](=O)[O-])cc1Cl)N1Cc2ccc(C(=O)C(Cl)(Cl)Cl)n2Cc2ccccc21 [Example 450, 10,11-dihydro-10-(2-chloro-4-nitro-benzoyl)-[3-(trichloroacetyl)]-5H-pyrrolo[2,1-c][1,4]benzodiazepine]
[1]; [3H]oxytocin
  inhibition at 10 µM: 22%

## O=C(c1ccc([N+](=O)[O-])cc1)N1Cc2ccc(C(=O)C(Cl)(Cl)Cl)n2Cc2ccccc21 [Example 449, 10,11-dihydro-10-(4-nitrobenzoyl)-[3-(trichloroacetyl)]-5H-pyrazolo[2,1-c]-[1,4]benzodiazepine]
[1]; [3H]oxytocin
  inhibition at 10 µM: 14%

## CCOC(=O)c1ccc2n1Cc1ccccc1N(C(=O)c1ccc([N+](=O)[O-])cc1Cl)C2 [Example 443, Ethyl 10,11-dihydro-10-(2-chloro-4-nitrobenzoyl)-5H-pyrrolo[2,1-c][1,4]benzodiazepine-3-carboxylate]
[1]; [3H]oxytocin
  inhibition at 10 µM: 70%

## O=C(Nc1ccc(C(=O)N2Cc3cccn3-c3ccccc32)cc1)c1cc(Cl)ccc1Cl [Example 16, N-[4-(pyrrolo[1,2-a]quinoxalin-5(4H)-ylcarbonyl)phenyl]-2,5-dichloro-benzamide]
[2]; 10 mg/kg orally
  Osmolality: 1242 mOsm/kg
  Urine Volume: 5.5 ml/4 hrs
[2]; 30 mg/kg orally
  Osmolality: 1295 mOsm/kg
  Urine Volume: 8 ml/4 hrs

## Cc1ccc(F)cc1C(=O)Nc1ccc(C(=O)O)cc1 [Example 417, 4-[(5-Fluoro-2-methylbenzoyl)amino]benzoic acid]
[1]; [3H]oxytocin
  inhibition at 10 µM: 21%

## Cc1cc(C(=O)N2Cc3ccc(C(=O)C(Cl)(Cl)Cl)n3Cc3ccccc32)ccc1[N+](=O)[O-] [Example 448]
[1]; [3H]oxytocin
  inhibition at 10 µM: 11%

## Cc1cc(C(=O)N2Cc3cccn3Cc3ccccc32)ccc1N [Example 95, 10,11-Dihydro-10-(4-amino-3-methylbenzoyl)-5H-pyrrolo[2,1-c][1,4]benzodiazepine]
[3]; 10 mg/kg i.v., VAS 0.01 i.u./kg, 30 min
  % Inhibition: 35% and 65%
[3]; [4]
  % Inhibition: 78%
  Average Change: 7
[3]; [5]
  % Inhibition: 58%
  Average Change: 13.5
[3]; [6]
  % Inhibition: 58%
  Average Change: 13.5
[3]; [7]
  % Inhibition: 52%
  Average Change: 15.5
[3]; [8]
  % Inhibition: 43%
  Average Change: 18.5
[3]; [9]
  % Inhibition: 52%
  Average Change: 15.5
[3]; [10]
  % Inhibition: 78%
  Average Change: 12.5
[3]; [11]
  % Inhibition: 72%
  Average Change: 16
[3]; [12]
  % Inhibition: 70%
  Average Change: 17.5
[3]; [13]
  % Inhibition: 72%
  Average Change: 16
[3]; [14]
  % Inhibition: 31%
  Average Change: 39.5
[3]; [15]
  % Inhibition: 27%
  Average Change: 42
[3]; [16]
  % Inhibition: 67%
  Average Change: 15
[3]; [17]
  % Inhibition: 70%
  Average Change: 13.5
[3]; [18]
  % Inhibition: 47%
  Average Change: 24
[3]; [19]
  % Inhibition: 48%
  Average Change: 23.5
[3]; [20]
  % Inhibition: 53%
  Average Change: 21.5
[3]; [21]
  % Inhibition: 46%
  Average Change: 24.5
[3]; [22]
  % Inhibition: 68%
  Average Change: 19.5
[3]; [23]
  % Inhibition: 61%
  Average Change: 24
[3]; [24]
  % Inhibition: 53%
  Average Change: 28.5
[3]; [25]
  % Inhibition: 44%
  Average Change: 34
[3]; [26]
  % Inhibition: 44%
  Average Change: 34
[3]; [27]
  % Inhibition: 39%
  Average Change: 37.5
